Patent US20210032345A1, “ANTI-PD-L1 ANTIBODIES, COMPOSITIONS AND ARTICLES OF MANUFACTURE” (Genentech, Inc., priority 2008, published 2021)

Target: PD-L1
Assay: FACS binding, rat
Conditions: half-maximal binding
Procedure: All samples were run on a […] FACSCalibur and Mean Fluorescence Intensity of PD-L1 binding data as a function of anti-PD-L1 antibody concentration was analyzed using Tree Star, Inc. FlowJo® software; EC50, values (Ab concentration associated with half-maximal binding) were calculated using Kaleidagraph. In addition, equilibrium binding studies were performed to define accurate affinities (Kds) for YW24355570 binding to human and mouse PD-L1 expressed on 293 cells (Example 3B).

YW243.55.S70: affinity-matured phage anti-PD-L1 antibody derived from YW243.55, selected as the primary candidate; full length IgG1
EC50: 0.8 nM
